The record followed here is patent US20230276836A1, “ORAL RETENTION COMPOSITION” (BIZEN CHEMICAL CO., LTD., priority 2020, published 2023).

One data set can be described thus: Reactivity index (RI) between compound and carrageenan, viscosity change (Test Examples 2, 10). Format: physicochemical. Conditions: Test Example 2; uncoated compound, 10 ppm in 1 mass% carrageenan, vs methanol sample; 1.1<RI = viscosity decreased. The method, then:
The measurement device, measurement, control sample, and D0 were the same as those in Test Example 1. An aqueous methanol solution containing a polyphenolic compound was prepared by dissolving the polyphenolic compound in an aqueous methanol solution (methanol concentration: 50 mass%) and diluted to 1 mg/mL in a measuring cylinder. 200 µL of this solution was added to 20 g of the same solution as the control sample (aqueous solution of 1 mass% carrageenan) and homogeneously mixed. The obtained solution was determined to be an uncoated sample. Additionally, a solution was prepared in the same manner as the uncoated sample, except that a 50% (v/v) aqueous methanol solution was used instead of the aqueous methanol solution containing a polyphenolic compound and determined to be a methanol sample. Evaluation Method: The progress distance (mm) of the control sample is D0. The progress distance (mm) of the uncoated sample is D1. The progress distance (mm) of the methanol sample is D1M. The reactivity index (RI) between a polyphenolic compound and carrageenan was calculated according to the following formula.
In this test system, the addition of an aqueous solution causes some decrease in viscosity due to a dilution effect. Thus, the determination method described above was used to detect the changes in viscosity due to the effect of a polyphenolic compound. Note that ±10% of the RI value was assumed to be within the margin of error (i.e., an RI value of 0.9 to 1.1 was assumed to be within the margin of error).
In the same manner as in Test Example 2, epigallocatechin gallate (polyphenolic compound), syringin and eleutheroside E (lignan compounds), and spermidine (basic substance) were prepared, and the effects of these substances on the viscosity of carrageenan were measured, and their reactivity was evaluated. Note that spermidine was dissolved in purified water, and the prepared aqueous solution was used as a sample.
As for `O=C(/C=C/c1ccc(O)c(O)c1)O[C@@H]1C[C@](O)(C(=O)O)C[C@@H](O)[C@H]1O` [Comparative Example 3, Chlorogenic Acid], the RI came to 4.1.

In turn, `O=C(OC[C@H]1O[C@@H](OC(=O)c2cc(O)c(O)c(OC(=O)c3cc(O)c(O)c(O)c3)c2)[C@H](OC(=O)c2cc(O)c(O)c(OC(=O)c3cc(O)c(O)c(O)c3)c2)[C@@H](OC(=O)c2cc(O)c(O)c(OC(=O)c3cc(O)c(O)c(O)c3)c2)[C@@H]1OC(=O)c1cc(O)c(O)c(OC(=O)c2cc(O)c(O)c(O)c2)c1)c1cc(O)c(O)c(OC(=O)c2cc(O)c(O)c(O)c2)c1` [Comparative Example 4, Tannic Acid] showed an RI of 2.5.

`O=c1c(O)c(-c2ccc(O)c(O)c2)oc2cc(O)cc(O)c12` [Comparative Example 5, Quercetin] had an RI of 2.2. On the same count and under the same terms, the same measure for `Oc1ccc(C=Cc2cc(O)cc(O)c2)cc1` [Comparative Example 6, Resveratrol]: 3.5.

The data set is the same for the next values; noted with them: Test Example 10; uncoated compound, 10 ppm in 1 mass% carrageenan; spermidine dissolved in purified water.
The molecule `O=C(O[C@@H]1Cc2c(O)cc(O)cc2O[C@@H]1c1cc(O)c(O)c(O)c1)c1cc(O)c(O)c(O)c1` [Comparative Example 12, Epigallocatechin Gallate] returned an RI of 4.4. `COc1cc(/C=C/CO)cc(OC)c1O[C@@H]1O[C@H](CO)[C@@H](O)[C@H](O)[C@H]1O` [Comparative Example 13, Syringin] showed an RI of 2.3. As to `COc1cc([C@H]2OC[C@@H]3[C@@H]2CO[C@H]3c2cc(OC)c(O[C@@H]3O[C@H](CO)[C@@H](O)[C@H](O)[C@H]3O)c(OC)c2)cc(OC)c1O[C@@H]1O[C@H](CO)[C@@H](O)[C@H](O)[C@H]1O` [Comparative Example 14, Eleutheroside E], the RI stood at 2.1. Still for that read-out and setting: the same measure for `NCCCCNCCCN` [Comparative Example 15, Spermidine]: 1.5.
